Entries after “also recorded” stand apart in the source; their conditions may differ.
Key:
[1] = tested on: MCF-7 tumors; assay: MCF-7 ER+ mammary tumor model; type: in vivo, mice
[2] = tested on: MCF-7 tumors; details: background statement; cited from earlier work
[3] = tested on: breast cancer cell lines; details: background statement; read-out: IC50, growth of breast cancer cell lines; cited from earlier work
[4] = molecular target: CYP3A4 (Homo sapiens, UniProt P08684); assay: Stability with recombinant human CYP3A4; type: in vitro ADME; set-up: purchased Corning; host or cells: insect cells (microsomes)
Sequence of CYP3A4 (P08684 whole entry): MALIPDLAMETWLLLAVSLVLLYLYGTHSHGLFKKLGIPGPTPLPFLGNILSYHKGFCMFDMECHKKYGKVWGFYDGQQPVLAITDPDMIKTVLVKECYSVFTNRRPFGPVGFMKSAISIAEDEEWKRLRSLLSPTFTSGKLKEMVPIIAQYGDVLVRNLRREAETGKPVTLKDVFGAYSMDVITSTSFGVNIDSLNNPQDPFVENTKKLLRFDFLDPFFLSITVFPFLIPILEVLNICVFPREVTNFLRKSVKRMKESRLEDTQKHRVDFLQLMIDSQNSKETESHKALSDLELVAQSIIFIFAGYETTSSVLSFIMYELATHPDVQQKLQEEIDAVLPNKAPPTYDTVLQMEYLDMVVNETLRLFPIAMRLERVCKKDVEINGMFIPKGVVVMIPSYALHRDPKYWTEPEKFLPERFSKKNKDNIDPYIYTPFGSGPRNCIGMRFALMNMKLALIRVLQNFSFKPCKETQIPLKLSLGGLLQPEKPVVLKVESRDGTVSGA
Description: Stability of HCB with recombinant human CYP3A4 and CYP2C8 enzymes was evaluated. 10 μM HCB was tested wich CYP3A4 and 2C8 (200 pmol/L) (Table 8). NADPH (2 mM) was added as a cofactor. Total volume was 200 μL.
HCB was incubated for 0, 30, or 60 min at 37° C. Incubations were quenched with 2 volumes of acetonitrile followed by centrifugation for 10 min at 16,000 g.

[5] = tested on: MCF-7 cells; assay: Mitochondrial swelling, JC-1 confocal imaging in MCF-7 cells; type: cell-based, human; details: 10 μM, FIG. 5
Description: FIG. 5. Mitochondrial swelling by HCB treatment in MCF-7 cells. MCF-7 cells were seeded at 30,000 cells/well into a chambered coverslip and treated with HCB or DMSO for 2 hours. JC-1 potential sensitive dye was added to a final concentration of 20 μM and incubation continued for an additional half an hour. Cell was then washed and imaged with a confocal microscope. Active mitochondria are stained yellow to orange. White arrows indicate swollen mitochondria.

[6] = tested on: ERα; assay: Nuclear translocation of ERα in MCF-7 cells; type: cell-based, human; details: 10 μM, 2 hours, FIG. 6
Description: FIG. 6. […] A. representative images (Blue: nuclei; Red: ERα) from an experiment. B. Percentage change of nuclear ERα density normalized to nuclear DNA stained by Hoechst. MCF-7 cells (1.5×10^4 cells/well) were seeded on uSlide (8 wells, Ibidi, cat #80826) and cultured with complete culture medium (MEM medium with Earle's salts & L-glutamine) containing 10% FBS, 10 mM HEPES, 2 mM glutamine and 100 U penicillin and 100 U streptomycin for almost 70 hours. Then the cells were starved in serum, phenol red and antibiotics free MEM medium for almost 16 hours, followed with HCB (10 μM) or vehicle (0.01% DMSO) treatment for 2 hours in starvation medium. Then the cells were fixed, permeabilized and probed with monoclonal antibody against ERα (Abcam, Cat #16660, primary antibody) and Texas Red-conjugated goat anti rabbit IgG (Thermo Fisher Scientific, Cat #T-6391, secondary antibody). Nuclei were stained with Hoechst dye (Thermo Scientific, Cat #62249). The nuclear ERαas were analyzed with confocal microscopy. Four sites per well were selected randomly for collecting the image data. The density of fluorescence was measured by ImageJ. […] Intensities of lights in each ROI were measured in the blue channel (nuclei) and red (Texas red, estrogen receptor α) channel. […] Results normalized to control are expressed as means±S.D. (n=7). […]

[7] = tested on: MCF-7 cells; assay: TMRE mitochondrial membrane potential in MCF-7 cells; type: cell-based, human; details: 10 μM, FIGS. 4A-4B
Description: FIG. 4A. Effect of HCB on mitochondrial cross membrane potential Δψ in MCF-7 cells. MCF-7 cells were seeded at 20,000 cells/well into a clear bottom black 96 well microplate. After treatments were added for 2 hours (FCCP control for 10 minutes), TMRE (tetramethylrhodamine, ethyl ester, Ex/Em 549/575) was added to a final concentration of 400 nM and incubation continued for additional 30 minutes. Media was removed and cells washed twice with PBS and 100 ul of PBS was added in the end. TMRE fluorescence was then measured with a plate reader. Results are reported as mean fluorescence intensity±S.D. (n=8, * indicates statistically significant difference from the DMSO control).
FIG. 4B. Effect of DCB and HCB on mitochondrial trans-membrane potential Δψ in MCF-7 cells. […] TMRE fluorescence was then measured with a plate reader. Results are reported as mean fluorescence intensity±S.D. (n=8, * indicates statistically significant difference from the DMSO control).
Mitochondrial cross membrane potential (Δψ) alteration in MCF-7 cells were measured by monitoring Δψ sensitive TMRE fluorescence intensity. […] TMRE fluorescence was then measured with a plate reader. Results are reported as mean fluorescence intensity±S.D. (n=8, * indicates statistically significant difference from the DMSO control).
TMRE Δψm measurement. […] Fluorescence was read at Ex 549 nm/Em 575 nm. […]

| Compound | tumor control ([1]; subcutaneous route at the MTD, compared with other route) | oxidative phosphorylation in ER+/HER2− MCF-7 tumors ([1]; subcutaneous, MTD) | growth of the MCF-7 ER+ mammary tumor model [2] | IC50 [3] [µM] | parent metabolite peak area after 60 min ([4]; 10 μM HCB, recombinant human CYP3A4, NADPH 2 mM) [%] | degradation pathways ([4]; recombinant human CYP3A4 and CYP2C8) | effect on mitochondrial tubule networks [5] | nuclear translocation of estrogen receptor (ER-α) [6] | effect on mitochondrial membrane potential [7] |
| --- | --- | --- | --- | --- | --- | --- | --- | --- | --- |
| CCCCCCNC(=N)NC(=N)NCc1ccccc1 [HBB, N1-hexyl-N5-benzyl-biguanide] | equally effective | inhibit oxidative phosphorylation | inhibits growth | 3 to 30 |  |  |  |  |  |
| CCCCCCNC(=N)NC(=N)NCC12C3C4C5C3C1C5C42 (stereo not drawn) [HCB, Hexyl Cubanomethyl Biguanide] |  |  |  |  | 93.91 | oxidation, dealkylation, and hydrogenation | caused loss of mitochondrial tubule networks | significantly decrease; also recorded: decreases nuclear translocation of ERα | inhibited the mitochondrial membrane potential |

— patent US20240067603A1, “CUBANYL BIGUANIDE COMPOUNDS” (REGENTS OF THE UNIVERSITY OF MINNESOTA, priority 2020, published 2024)
